Measured values taken from PubChem BioAssay (NCI).
Where “and” joins values, the source holds several entries; their conditions need not be identical. Identical values can stand only once.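 Grown in 96-well plates, cells were treated for 48 hours with each compound at five concentrations. Insufficient inhibition: endpoint recorded as highest concentration tested. GI50: concentration for 50% inhibition of growth. TGI denotes the concentration required for complete inhibition of growth.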

Legend:
Assay in all cases: growth of human tumour cells (NCI), 48 h
[1] = test system: HL-60(TB) leukemia
[2] = test system: A549 NSCLC
[3] = test system: SK-OV-3 ovarian
[4] = test system: RXF 393 renal
[5] = test system: MALME-3M melanoma
[6] = test system: SK-MEL-28 melanoma
[7] = test system: HOP-62 NSCLC
[8] = test system: NCI-H460 lung
[9] = test system: SF-539 CNS
[10] = test system: NCI-H226 lung

SMILES	TGI [1]	TGI [2]	TGI [3]	TGI [4]	TGI [5]	TGI [6]	TGI [7]	TGI [8]	TGI [9]	TGI [10]	GI50 [1] [µM]	GI50 [2] [µM]	GI50 [3] [µM]	GI50 [5] [µM]	GI50 [6] [µM]	GI50 [7] [µM]	GI50 [8] [µM]	GI50 [9] [µM]	GI50 [10] [µM]	GI50 [4] [µM]
Cc1cc(Cl)ccc1Nc1nc2c(s1)C(=O)c1ccccc1C2=O	2.68 µM	21.4 µM	26.1 µM	16.8 µM	2.92 µM	4.14 µM	9.72 µM	9.5 µM	16 µM	13.7 µM										
COc1ccc(/C=C/C(=O)c2ccccc2)cc1OC	61.2 µM and > 100 µM	47.7 µM and > 100 µM	29.5 µM and > 100 µM	48.2 µM and 27.6 µM	35.1 µM and 38 µM	38.1 µM and 32 µM	31.1 µM and 43 µM	32.5 µM and 37.5 µM	25.7 µM and 36.1 µM	53.6 µM and 32.3 µM	14.6	30.5	37.8	18.7	17.6	19.3	14.3	16.4	16.4	
Clc1ccc(Nc2ncnc3c2sc2ncccc23)c(Cl)c1	> 100 µM	> 100 µM	> 100 µM	> 100 µM	> 100 µM	> 100 µM	> 19.7 µM	> 100 µM	7.37 µM	> 100 µM	< 0.0137	< 0.01	0.137	6.67	6.39	< 0.01	< 0.01	0.0225	0.42	0.0492
Cc1nc2cc(Nc3nc(Nc4ccc(F)cc4)nc(N4CCCC4)n3)ccc2n1Cc1ccccc1	5.3 µM	4.63 µM	5.2 µM	3.09 µM	3.17 µM	3.92 µM	3.45 µM	3.44 µM	3.32 µM	4.29 µM	2.58	2.05	2.18	1.61	1.88	1.74	1.82	1.79	1.9	1.55
CCOC(=O)CP(=S)(S)c1ccccc1 (centres undefined)	> 100 µM	> 100 µM	> 100 µM	> 100 µM	> 100 µM	> 100 µM	> 100 µM	> 100 µM	> 100 µM	> 100 µM										
O=C1NC(Cc2ccccc2)C(=O)N2CCCC12 (centres undefined)	> 100 µM	> 100 µM	> 100 µM	> 100 µM	> 100 µM	> 100 µM	> 100 µM	> 100 µM	> 100 µM	> 100 µM										
CCC1OC(=O)CC(O)C(C)C(OC2OC(C)CC(N(C)C)C2O)C(CC=O)CC(C)C(=O)/C=C/C2(C)OC2C1C (centres undefined)	32.4 µM	> 100 µM	78.9 µM	56.1 µM	64.9 µM	42.3 µM	71.7 µM	> 100 µM	29.6 µM	49.6 µM										
